Measured values taken from patent US6737383B1, “Herbicidal oxadiazolidines” (priority 1999, dated 2004).

Assays:
crabgrass = assay: Test B pre/postemergence crabgrass; format: in vivo, Digitaria sanguinalis; conditions: for Crabgrass plant response rating: scale of 0 to 10 where 0 is no effect and 10 is complete control
Procedure, shortened: (§1)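 Herbicidal effect was estimated by eye on a ten-point control scale after plants spent twelve to sixteen days in a greenhouse following soil or foliar treatment. Foliar sprays targeted plants at one to four leaves; all doses were formulated in a non-phytotoxic solvent with surfactant.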

smallflower flatsedge = assay: Test B flood test smallflower flatsedge; format: in vivo, Cyperus difformis
Procedure, shortened: (§2)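 Each value is a visual injury score relative to controls, with 10 meaning complete control and 0 no effect. Evaluation took place twelve to sixteen days after the 2-leaf-stage plants were treated and kept in the greenhouse.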

giant foxtail = assay: Test B pre/postemergence giant foxtail; format: in vivo, Setaria faberii; conditions: for Giant foxtail plant response rating: scale of 0 to 10 where 0 is no effect and 10 is complete control
Procedure, shortened: as §1

surinam grass = assay: Test B pre/postemergence surinam grass; format: in vivo, Brachiaria decumbens; conditions: for B. signalgrass plant response rating: scale of 0 to 10 where 0 is no effect and 10 is complete control
Procedure, shortened: as §1

wheat = assay: Test B pre/postemergence wheat; format: in vivo, Triticum aestivum; conditions: for Wheat plant response rating: scale of 0 to 10 where 0 is no effect and 10 is complete control
Procedure, shortened: as §1

duck salad = assay: Test B flood test duck salad; format: in vivo, Heteranthera limosa
Procedure, shortened: as §2

blackgrass = assay: Test B pre/postemergence blackgrass; format: in vivo, Alopecurus myosuroides; conditions: for Blackgrass plant response rating: scale of 0 to 10 where 0 is no effect and 10 is complete control
Procedure, shortened: as §1

velvetleaf = assay: Test B pre/postemergence velvetleaf; format: in vivo, Abutilon theophrasti; conditions: for Velvetleaf plant response rating: scale of 0 to 10 where 0 is no effect and 10 is complete control
Procedure, shortened: as §1

pigweed = assay: Test B pre/postemergence pigweed; format: in vivo, Amaranthus retroflexus; conditions: for Redroot pigweed plant response rating: scale of 0 to 10 where 0 is no effect and 10 is complete control
Procedure, shortened: as §1

corn = assay: Test B pre/postemergence corn; format: in vivo, Zea mays; conditions: for Corn plant response rating: scale of 0 to 10 where 0 is no effect and 10 is complete control
Procedure, shortened: as §1

rice = assay: Test B flood test rice; format: in vivo, Oryza sativa
Procedure, shortened: as §2

purple nutsedge = assay: Test B pre/postemergence purple nutsedge; format: in vivo, Cyperus rotundus; conditions: for Nutsedge plant response rating: scale of 0 to 10 where 0 is no effect and 10 is complete control
Procedure, shortened: as §1

wild oat = assay: Test B pre/postemergence wild oat; format: in vivo, Avena fatua; conditions: for Wild oats plant response rating: scale of 0 to 10 where 0 is no effect and 10 is complete control
Procedure, shortened: as §1

soybean = assay: Test B pre/postemergence soybean; format: in vivo, Glycine max; conditions: for Soybean plant response rating: scale of 0 to 10 where 0 is no effect and 10 is complete control
Procedure, shortened: as §1

morningglory = assay: Test B pre/postemergence morningglory; format: in vivo, Ipomoea hederacea; conditions: for Morningglory plant response rating: scale of 0 to 10 where 0 is no effect and 10 is complete control
Procedure, shortened: as §1

[1] = Postemergence, Rate 125 g/ha, scale 0 to 10, 0 is no effect, 10 is complete control
[2] = Postemergence, Rate 250 g/ha, scale 0 to 10, 0 is no effect, 10 is complete control
[3] = Preemergence, Rate 62 g/ha, scale 0 to 10 (0 no effect, 10 complete control)
[4] = Rate 500 g/ha, Postemergence, scale 0 to 10, 0 no effect, 10 complete control
[5] = Postemergence (flood test), Rate 125 g/ha, scale 0 to 10, 0 is no effect, 10 is complete control
[6] = Rate 62 g/ha, Postemergence (flood test species), scale of 0 to 10 where 0 is no effect and 10 is complete control
[7] = Rate 62 g/ha, flood test species, Pre-emergence, visual evaluation after twelve to sixteen days
[8] = Rate 125 g/ha, Pre-emergence, flood test species, scale 0 to 10 where 0 is no effect and 10 is complete control
[9] = Rate 250 g/ha, Pre-emergence, flood-test species, scale 0 to 10, 0 is no effect, 10 is complete control
[10] = Rate 500 g/ha, listed under Postemergence (flood test species), scale 0 to 10, 0 no effect, 10 complete control
[11] = Rate 500 g/ha, Pre-emergence, flood test species, scale 0 to 10 (0 no effect, 10 complete control)
[12] = flood test species, listed under Postemergence, Rate 250 g/ha, scale 0 to 10, 0 is no effect, 10 is complete control

Q: Which results are given for `CC1CC1n1c(=O)on(C(=O)N(c2ccc(Cl)cc2)C(C)C)c1=O` (stereo not drawn) [Compound 369]?
A: Plant response rating, Crabgrass (crabgrass; [1]): 0; Plant response rating, Crabgrass (crabgrass; [2]): 2; Plant response rating, Crabgrass (crabgrass; [3]): 5; Crabgrass plant response rating (0 to 10 scale) (crabgrass; Preemergence, Rate 125 g/ha): 7; Crabgrass plant response rating (crabgrass; Preemergence, Rate 250 g/ha): 9; Crabgrass plant response rating (crabgrass; Preemergence, Rate 500 g/ha): 10; Crabgrass plant response rating (crabgrass; Rate 62 g/ha, Postemergence): 0; Plant response rating, Crabgrass (crabgrass; [4]): 9; Plant response rating, S. Flatsedge (smallflower flatsedge; [5]): 2; S. Flatsedge plant response rating (smallflower flatsedge; [6]): 0; Plant response rating, S. Flatsedge (0 to 10 scale, 0 is no effect, 10 is complete control) (smallflower flatsedge; [7]): 0; S. Flatsedge plant response rating (smallflower flatsedge; [8]): 0; S. Flatsedge plant response rating (smallflower flatsedge; [9]): 0; Plant response rating, S. Flatsedge (smallflower flatsedge; [10]): 4; S. Flatsedge plant response rating (smallflower flatsedge; [11]): 0; Plant response rating, S. Flatsedge (smallflower flatsedge; [12]): 2; Plant response rating, Giant foxtail (giant foxtail; [1]): 0; Plant response rating, Giant foxtail (giant foxtail; [2]): 2; Plant response rating, Giant foxtail (giant foxtail; [3]): 8; Giant foxtail plant response rating (0 to 10 scale) (giant foxtail; Preemergence, Rate 125 g/ha): 9; Giant foxtail plant response rating (giant foxtail; Preemergence, Rate 250 g/ha): 10; Giant foxtail plant response rating (giant foxtail; Preemergence, Rate 500 g/ha): 10; Giant foxtail plant response rating (giant foxtail; Rate 62 g/ha, Postemergence): 0; Plant response rating, Giant foxtail (giant foxtail; [4]): 9; Plant response rating, B. signalgrass (surinam grass; [1]): 0; Plant response rating, B. signalgrass (surinam grass; [2]): 0; Plant response rating, B. signalgrass (surinam grass; [3]): 0; B. signalgrass plant response rating (0 to 10 scale, 0 is no effect, 10 is complete control) (surinam grass; Preemergence, Rate 125 g/ha): 0; B. signalgrass plant response rating (surinam grass; Preemergence, Rate 250 g/ha): 2; B. signalgrass plant response rating (surinam grass; Preemergence, Rate 500 g/ha): 2; B. signalgrass plant response rating (surinam grass; Rate 62 g/ha, Postemergence): 0; Plant response rating, B. signalgrass (surinam grass; [4]): 3; Plant response rating, Wheat (wheat; [1]): 0; Plant response rating, Wheat (wheat; [2]): 0; Plant response rating, Wheat (wheat; [3]): 0; Wheat plant response rating (0 to 10 scale) (wheat; Preemergence, Rate 125 g/ha): 0; Wheat plant response rating (wheat; Preemergence, Rate 250 g/ha): 0; Wheat plant response rating (wheat; Preemergence, Rate 500 g/ha): 0; Wheat plant response rating (wheat; Rate 62 g/ha, Postemergence): 0; Plant response rating, Wheat (wheat; [4]): 4; Plant response rating, Ducksalad (duck salad; [5]): 0; Ducksalad plant response rating (duck salad; [6]): 0; Plant response rating, Ducksalad (0 to 10 scale, 0 is no effect, 10 is complete control) (duck salad; [7]): 0; Ducksalad plant response rating (duck salad; [8]): 0; Ducksalad plant response rating (duck salad; [9]): 0; Plant response rating, Ducksalad (duck salad; [10]): 2; Ducksalad plant response rating (duck salad; [11]): 0; Plant response rating, Ducksalad (duck salad; [12]): 2; Plant response rating, Blackgrass (blackgrass; [1]): 0; Plant response rating, Blackgrass (blackgrass; [2]): 5; Plant response rating, Blackgrass (blackgrass; [3]): 0; Blackgrass plant response rating (0 to 10 scale) (blackgrass; Preemergence, Rate 125 g/ha): 0; Blackgrass plant response rating (blackgrass; Preemergence, Rate 250 g/ha): 2; Blackgrass plant response rating (blackgrass; Preemergence, Rate 500 g/ha): 5; Blackgrass plant response rating (blackgrass; Rate 62 g/ha, Postemergence): 0; Plant response rating, Blackgrass (blackgrass; [4]): 5; Plant response rating, Velvetleaf (velvetleaf; [1]): 0; Plant response rating, Velvetleaf (velvetleaf; [2]): 0; Plant response rating, Velvetleaf (velvetleaf; [3]): 0; Velvetleaf plant response rating (0 to 10 scale) (velvetleaf; Preemergence, Rate 125 g/ha): 0; Velvetleaf plant response rating (velvetleaf; Preemergence, Rate 250 g/ha): 0; Velvetleaf plant response rating (velvetleaf; Preemergence, Rate 500 g/ha): 6; Velvetleaf plant response rating (velvetleaf; Rate 62 g/ha, Postemergence): 0; Plant response rating, Velvetleaf (velvetleaf; [4]): 3; Plant response rating, Redroot pigweed (pigweed; [1]): 0; Plant response rating, Redroot pigweed (pigweed; [2]): 0; Plant response rating, Redroot pigweed (pigweed; [3]): 0; Redroot pigweed plant response rating (0 to 10 scale) (pigweed; Preemergence, Rate 125 g/ha): 4; Redroot pigweed plant response rating (pigweed; Preemergence, Rate 250 g/ha): 10; Redroot pigweed plant response rating (pigweed; Preemergence, Rate 500 g/ha): 10; Redroot pigweed plant response rating (pigweed; Rate 62 g/ha, Postemergence): 0; Plant response rating, Redroot pigweed (pigweed; [4]): 4; Plant response rating, Corn (corn; [1]): 0; Plant response rating, Corn (corn; [2]): 0; Plant response rating, Corn (corn; [3]): 0; Corn plant response rating (0 to 10 scale) (corn; Preemergence, Rate 125 g/ha): 0; Corn plant response rating (corn; Preemergence, Rate 250 g/ha): 0; Corn plant response rating (corn; Preemergence, Rate 500 g/ha): 0; Corn plant response rating (corn; Rate 62 g/ha, Postemergence): 0; Plant response rating, Corn (corn; [4]): 0; Plant response rating, Rice (rice; [5]): 0; Rice plant response rating (rice; [6]): 0; Plant response rating, Rice (0 to 10 scale, 0 is no effect, 10 is complete control) (rice; [7]): 0; Rice plant response rating (rice; [8]): 0; Rice plant response rating (rice; [9]): 0; Plant response rating, Rice (rice; [10]): 0; Rice plant response rating (rice; [11]): 0; Plant response rating, Rice (rice; [12]): 0; Plant response rating, Nutsedge (purple nutsedge; [1]): 0; Plant response rating, Nutsedge (purple nutsedge; [2]): 0; Plant response rating, Nutsedge (purple nutsedge; [3]): 0; Nutsedge plant response rating (0 to 10 scale) (purple nutsedge; Preemergence, Rate 125 g/ha): 0; Nutsedge plant response rating (purple nutsedge; Preemergence, Rate 250 g/ha): 0; Nutsedge plant response rating (purple nutsedge; Preemergence, Rate 500 g/ha): 5; Nutsedge plant response rating (purple nutsedge; Rate 62 g/ha, Postemergence): 0; Plant response rating, Nutsedge (purple nutsedge; [4]): 3; Plant response rating, Wild oats (wild oat; [1]): 0; Plant response rating, Wild oats (wild oat; [2]): 0; Plant response rating, Wild oats (wild oat; [3]): 0; Wild oats plant response rating (0 to 10 scale) (wild oat; Preemergence, Rate 125 g/ha): 0; Wild oats plant response rating (wild oat; Preemergence, Rate 250 g/ha): 0; Wild oats plant response rating (wild oat; Preemergence, Rate 500 g/ha): 7; Wild oats plant response rating (wild oat; Rate 62 g/ha, Postemergence): 0; Plant response rating, Wild oats (wild oat; [4]): 4; Plant response rating, Soybean (soybean; [1]): 0; Plant response rating, Soybean (soybean; [2]): 1; Plant response rating, Soybean (soybean; [3]): 0; Soybean plant response rating (0 to 10 scale) (soybean; Preemergence, Rate 125 g/ha): 0; Soybean plant response rating (soybean; Preemergence, Rate 250 g/ha): 0; Soybean plant response rating (soybean; Preemergence, Rate 500 g/ha): 4; Soybean plant response rating (soybean; Rate 62 g/ha, Postemergence): 0; Plant response rating, Soybean (soybean; [4]): 1; Plant response rating, Morningglory (morningglory; [1]): 10; Plant response rating, Morningglory (morningglory; [2]): 10; Plant response rating, Morningglory (morningglory; [3]): 0; Morningglory plant response rating (0 to 10 scale) (morningglory; Preemergence, Rate 125 g/ha): 0; Morningglory plant response rating (morningglory; Preemergence, Rate 250 g/ha): 0; Morningglory plant response rating (morningglory; Preemergence, Rate 500 g/ha): 0; Morningglory plant response rating (morningglory; Rate 62 g/ha, Postemergence): 7; Plant response rating, Morningglory (morningglory; [4]): 10
